Here are results for eight compounds from ChEMBL document CHEMBL1141995, “N-i-Propoxy-N-biphenylsulfonylaminobutylhydroxamic acids as potent and selective inhibitors of MMP-2 and MT1-MMP” (Bioorg Med Chem Lett, 2005).

Molecules are shown by their SMILES.

Test [1] addresses Stromelysin-1 (Homo sapiens, UniProt P08254). Put plainly: Inhibition of human matrix metalloprotease-3.
The target of test [2] is Matrix metalloproteinase-14 (Homo sapiens, UniProt P50281). The experiment in a line: Inhibition of human matrix metalloprotease-14.
The target in test [3] is T1, Matrilysin (Homo sapiens, UniProt P09237).
T1 sequence (P09237 whole entry): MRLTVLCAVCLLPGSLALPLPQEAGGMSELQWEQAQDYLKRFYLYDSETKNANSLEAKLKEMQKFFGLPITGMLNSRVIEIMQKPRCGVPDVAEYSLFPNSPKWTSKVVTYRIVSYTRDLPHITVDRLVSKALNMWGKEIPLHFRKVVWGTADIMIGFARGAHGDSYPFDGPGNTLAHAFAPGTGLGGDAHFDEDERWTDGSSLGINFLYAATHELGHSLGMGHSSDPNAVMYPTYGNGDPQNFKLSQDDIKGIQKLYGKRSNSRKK
Put plainly: Inhibition of human matrix metalloprotease-7.

The target of test [4] is Matrix metalloproteinase-9 (Homo sapiens, UniProt P14780). The experiment in a line: Inhibition of human matrix metalloprotease-9.
Matrix metalloproteinase-9, sequence (P14780 whole entry): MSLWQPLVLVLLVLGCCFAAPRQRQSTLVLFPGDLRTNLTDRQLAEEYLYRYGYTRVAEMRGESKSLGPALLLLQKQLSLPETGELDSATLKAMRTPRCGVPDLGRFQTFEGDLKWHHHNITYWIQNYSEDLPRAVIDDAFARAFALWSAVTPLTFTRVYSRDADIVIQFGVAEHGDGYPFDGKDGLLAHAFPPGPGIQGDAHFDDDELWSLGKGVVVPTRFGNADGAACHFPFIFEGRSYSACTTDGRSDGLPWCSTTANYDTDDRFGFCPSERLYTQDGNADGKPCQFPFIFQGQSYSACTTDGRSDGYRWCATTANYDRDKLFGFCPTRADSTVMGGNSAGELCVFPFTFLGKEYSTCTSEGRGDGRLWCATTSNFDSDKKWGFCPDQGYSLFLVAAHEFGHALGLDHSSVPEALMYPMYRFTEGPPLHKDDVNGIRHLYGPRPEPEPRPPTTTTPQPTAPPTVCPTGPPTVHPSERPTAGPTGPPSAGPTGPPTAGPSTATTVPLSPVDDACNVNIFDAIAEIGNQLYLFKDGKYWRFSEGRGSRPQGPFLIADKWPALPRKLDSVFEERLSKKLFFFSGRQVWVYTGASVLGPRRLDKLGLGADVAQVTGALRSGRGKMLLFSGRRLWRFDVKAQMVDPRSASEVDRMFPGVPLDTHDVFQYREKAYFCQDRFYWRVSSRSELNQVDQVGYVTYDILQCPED
For test [5], the target named is Neutrophil collagenase (Homo sapiens, UniProt P22894). The experiment in a line: Inhibition of human matrix metalloprotease-8.
Neutrophil collagenase, sequence (P22894 whole entry): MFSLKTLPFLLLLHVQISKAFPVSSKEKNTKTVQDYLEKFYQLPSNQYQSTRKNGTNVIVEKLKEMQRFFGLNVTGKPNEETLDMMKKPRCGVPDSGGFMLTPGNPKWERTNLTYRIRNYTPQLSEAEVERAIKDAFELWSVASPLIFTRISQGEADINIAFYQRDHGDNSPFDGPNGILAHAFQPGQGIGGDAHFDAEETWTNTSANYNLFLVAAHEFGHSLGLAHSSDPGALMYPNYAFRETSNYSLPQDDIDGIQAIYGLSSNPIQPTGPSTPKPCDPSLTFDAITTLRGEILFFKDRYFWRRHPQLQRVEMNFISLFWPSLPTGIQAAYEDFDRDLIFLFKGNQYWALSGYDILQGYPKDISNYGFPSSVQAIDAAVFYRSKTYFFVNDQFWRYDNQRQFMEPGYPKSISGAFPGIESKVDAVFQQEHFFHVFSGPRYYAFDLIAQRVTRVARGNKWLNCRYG
Test [6] addresses 72 kDa type IV collagenase (Homo sapiens, UniProt P08253). Put plainly: Inhibition of human matrix metalloprotease-2.
Test [7] deals with T2, Interstitial collagenase (Homo sapiens, UniProt P03956).
T2 sequence (P03956 whole entry): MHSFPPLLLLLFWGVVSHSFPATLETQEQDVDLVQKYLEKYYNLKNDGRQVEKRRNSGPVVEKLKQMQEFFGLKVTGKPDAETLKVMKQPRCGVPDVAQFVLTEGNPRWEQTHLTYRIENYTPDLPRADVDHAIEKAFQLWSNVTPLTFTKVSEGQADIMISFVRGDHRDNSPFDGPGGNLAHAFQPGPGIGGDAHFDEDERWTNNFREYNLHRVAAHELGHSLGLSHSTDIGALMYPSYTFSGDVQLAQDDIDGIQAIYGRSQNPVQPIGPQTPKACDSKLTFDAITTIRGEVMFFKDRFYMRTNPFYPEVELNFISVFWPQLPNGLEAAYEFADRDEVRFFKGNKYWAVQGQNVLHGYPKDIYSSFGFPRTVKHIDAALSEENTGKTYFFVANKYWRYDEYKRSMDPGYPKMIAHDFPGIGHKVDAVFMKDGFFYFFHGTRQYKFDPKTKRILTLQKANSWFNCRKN
Put plainly: Inhibition of human matrix metalloprotease-1.

72 kDa type IV collagenase, sequence (P08253 whole entry): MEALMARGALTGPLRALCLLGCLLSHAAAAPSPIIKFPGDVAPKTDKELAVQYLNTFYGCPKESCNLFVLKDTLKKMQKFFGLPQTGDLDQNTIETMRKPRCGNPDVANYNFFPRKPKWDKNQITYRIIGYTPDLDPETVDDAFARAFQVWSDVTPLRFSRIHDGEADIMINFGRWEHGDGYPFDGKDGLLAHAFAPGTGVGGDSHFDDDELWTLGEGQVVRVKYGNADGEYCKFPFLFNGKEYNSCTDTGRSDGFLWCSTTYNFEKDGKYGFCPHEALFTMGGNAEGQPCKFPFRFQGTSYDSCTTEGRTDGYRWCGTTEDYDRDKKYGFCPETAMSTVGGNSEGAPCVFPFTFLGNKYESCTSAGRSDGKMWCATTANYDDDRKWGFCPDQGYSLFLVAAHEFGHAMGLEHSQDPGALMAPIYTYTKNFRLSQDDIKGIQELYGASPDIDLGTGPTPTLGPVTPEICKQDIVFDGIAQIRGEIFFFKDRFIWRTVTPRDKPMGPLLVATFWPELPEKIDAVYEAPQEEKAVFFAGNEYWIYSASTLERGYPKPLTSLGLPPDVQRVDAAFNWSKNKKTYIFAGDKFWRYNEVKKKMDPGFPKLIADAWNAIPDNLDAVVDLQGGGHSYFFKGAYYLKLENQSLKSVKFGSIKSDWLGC
Stromelysin-1, sequence (P08254 whole entry): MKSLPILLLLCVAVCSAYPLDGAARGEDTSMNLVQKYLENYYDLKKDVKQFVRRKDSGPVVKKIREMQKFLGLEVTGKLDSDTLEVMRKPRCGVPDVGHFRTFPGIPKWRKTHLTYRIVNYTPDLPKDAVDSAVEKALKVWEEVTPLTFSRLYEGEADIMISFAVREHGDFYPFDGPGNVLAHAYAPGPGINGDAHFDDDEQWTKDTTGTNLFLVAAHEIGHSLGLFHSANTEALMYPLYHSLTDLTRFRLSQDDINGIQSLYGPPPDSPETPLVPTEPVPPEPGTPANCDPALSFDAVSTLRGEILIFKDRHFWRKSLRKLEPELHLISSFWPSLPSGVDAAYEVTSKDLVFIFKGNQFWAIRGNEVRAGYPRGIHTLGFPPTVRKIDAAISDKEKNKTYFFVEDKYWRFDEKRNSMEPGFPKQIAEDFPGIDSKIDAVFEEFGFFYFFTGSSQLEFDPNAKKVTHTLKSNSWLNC

Broadly, the IC50 is the concentration needed to halve the response being measured. A high value points to weaker potency in that assay. Take `CC(C)ON([C@@H](C(=O)NO)C(C)C)S(=O)(=O)c1ccc(-c2ccccc2)cc1`: the IC50 in test [1] is 50 nM; in test [2] it was 9.8 nM; in test [3] it was > 11100 nM; in test [4], 6.7 nM; in test [5] it was 1.6 nM; in test [6], 0.09 nM.

As for `CC(C)ON(CC(=O)NO)S(=O)(=O)c1ccc(-c2ccccc2)cc1`, the concentration for half-maximal inhibition (IC50) in test [7] is > 50000 nM; in test [1], 4500 nM; in test [2], > 10000 nM; in test [3], > 50000 nM; in test [4], 200 nM; in test [6], 12 nM.

For the compound `CC(C)ON([C@H](CCNC(=O)OCc1ccccc1)C(=O)NO)S(=O)(=O)c1ccc(-c2ccccc2)cc1`, the half-inhibitory concentration (IC50) in test [7] is > 3000 nM; in test [1], 130 nM; in test [2], 7.7 nM; in test [3] it was > 24400 nM; in test [4] it was 16 nM; in test [6], 0.41 nM.

As for `CC(C)ON([C@H](C(=O)NO)C(C)C)S(=O)(=O)c1ccc(-c2ccccc2)cc1`, the IC50 in test [4] is 13 nM; in test [6], 10.3 nM.

In the case of `CC(C)ON([C@H](CCN)C(=O)NO)S(=O)(=O)c1ccc(-c2ccccc2)cc1`, the concentration for half-maximal inhibition (IC50) in test [2] was > 300 nM; in test [4] it was 4520 nM; in test [6], 935 nM.

Turning to `CC(C)ON(C(C(=O)NO)C(C)C)S(=O)(=O)c1ccc(-c2ccccc2)cc1` (racemic), the values for the concentration for half-maximal inhibition (IC50) in test [4] and in test [6] were 19.6 nM and 1.8 nM, respectively.

On to `COc1ccc(S(=O)(=O)N(Cc2cccnc2)[C@@H](C(=O)NO)C(C)C)cc1` [CGS-27023A], for which the IC50 was determined as 8.9 nM in test [2] and 100 nM in test [3].

As for `CC1(C)SCCN(S(=O)(=O)c2ccc(Oc3ccncc3)cc2)[C@H]1C(=O)NO` [PRINOMASTAT], the values for the 50% inhibitory concentration (IC50) in test [2] and in test [3] were 0.3 nM and 54 nM, respectively.
